# Measurements from patent US20140235613A1, “SUBSTITUTED DIARYL AZETIDINE DERIVATIVES AS SPHINGOSINE RECEPTOR MODULATORS” (Allergan, Inc., priority 2013, published 2014).
# Target: T1, human S1P1 receptor (Homo sapiens, UniProt P21453)
# T1 construct: expressed in transfected cells; membranes used
# Assay: GTP γ35S binding assay for S1P1 activity
# Type: biochemical
# Settings: Activity potency: S1P1 receptor from GTP γ35S; membranes; test concentration range 0.08 to 5,000 nM
# Protocol: Compounds were tested for S1P1 activity using the GTP γ^35S binding assay. These compounds may be assessed for their ability to activate or block activation of the human S1P1 receptor in cells stably expressing the S1P1 receptor.
# […] binding was measured in the medium containing (mM) HEPES 25, pH 7.4, MgCl2 10, NaCl 100, dithitothreitol 0.5, digitonin 0.003%, 0.2 nM GTP γ^35S, and 5 μg membrane protein in a volume of 150 μl. Test compounds were included in the concentration range from 0.08 to 5,000 nM unless indicated otherwise. Membranes were incubated with 100 μM 5′-adenylylimmidodiphosphate for 30 min, and subsequently with 10 μM GDP for 10 min on ice.
# Drug solutions and membrane were mixed, and then reactions were initiated by adding GTP γ^35S and continued for 30 min at 25° C. Reaction mixtures were filtered over Whatman GF/B filters under vacuum, and washed three times with 3 mL of ice-cold buffer (HEPES 25, pH7.4, MgCl2 10 and NaCl 100). Filters were dried and mixed with scintillant, and counted for ^35S activity using a β-counter. Agonist-induced GTP γ^35S binding was obtained by subtracting that in the absence of agonist. Binding data were analyzed using a non-linear regression method. In case of antagonist assay, the reaction mixture contained 10 nM S1P in the presence of test antagonist at concentrations ranging from 0.08 to 5000 nM.
# T1 sequence (P21453 whole entry): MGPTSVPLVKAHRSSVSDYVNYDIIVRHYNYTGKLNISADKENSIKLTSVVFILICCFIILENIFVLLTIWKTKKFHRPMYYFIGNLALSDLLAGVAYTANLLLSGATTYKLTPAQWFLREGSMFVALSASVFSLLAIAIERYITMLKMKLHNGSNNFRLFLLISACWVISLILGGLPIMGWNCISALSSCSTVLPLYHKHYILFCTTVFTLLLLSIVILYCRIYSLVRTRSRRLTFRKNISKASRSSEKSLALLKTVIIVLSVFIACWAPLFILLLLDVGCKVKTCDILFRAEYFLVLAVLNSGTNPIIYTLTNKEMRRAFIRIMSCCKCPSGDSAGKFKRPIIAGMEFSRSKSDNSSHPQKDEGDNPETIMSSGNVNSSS
row,SMILES,EC50 [nM]
1,"O=C(O)C1CN(Cc2ccc(CC/N=c3\scc(-c4ccccc4)n3-c3ccccc3)cc2)C1 [Compound 1, 1-[4-(2-{[(2Z)-3,4-diphenyl-1,3-thiazol-2(3H)-ylidene]amino}ethyl)benzyl]azetidine-3-carboxylic acid]",297
2,"O=C(O)C1CN(Cc2ccc(CCSc3ncc(-c4ccccc4)n3-c3ccccc3)cc2)C1 [Compound 2, 1-(4-{2-[(1,5-diphenyl-1H-imidazol-2-yl)thio]ethyl}benzyl)azetidine-3-carboxylic acid]",5600
